Test in all cases: relative viability (nuclei count vs DMSO), 5 days (fraction); higher = more cells survive
Compound in test [1]: CN1C=C(C2=CC=CC=C21)/C=C\3/C4=C(C=CC=N4)NC3=O + CC(=O)c1c(C)c2cnc(Nc3ccc(N4CCNCC4)cn3)nc2n(C2CCCC2)c1=O [Palbociclib] (partner 0.5 µM)
The essentials: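 Nuclei were stained with Hoechst during a one-step fixation (final 0.05% Triton X-100, 1% formaldehyde, 1 ug/ml Hoechst) carried out 5 days after dosing, then counted on 4× images. The cells, lung cancer lines in 1536-well plates, had been dosed by pin tool the day after seeding with one drug alone or a fixed anchor-drug dose plus five library-drug doses (not always all listed) in √10 steps. Relative viability is the nuclei count in treated wells divided by that in vehicle wells, and each value is the median of duplicate plates.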

Compound in test [2]: CN1C=C(C2=CC=CC=C21)/C=C\3/C4=C(C=CC=N4)NC3=O
The method, boiled down:
(§1)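 In 1536-well plates, lung cancer cell lines rested overnight at 37 °C before five library-drug doses (not always all listed), √10 apart, were pinned onto vehicle-anchored plates. Nuclei were counted with MetaXpress from 4× Hoechst images taken after 5 days without medium change. Viability compares treated-well with vehicle-well nuclei as a median over plates, and plates needed control CV below 25% plus at least one doubling to pass.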

Compound in a further test: CC(=O)Nc1cccc(-n2c(=O)n(C3CC3)c(=O)c3c(Nc4ccc(I)cc4F)n(C)c(=O)c(C)c32)c1 [Trametinib]
The essentials: as §1

Regarding UMC-11, the relative viability was 0.3 in test [1] (first compound 0.02 µM); 0.318 in test [1] (first compound 0.06325 µM); 0.358 in test [1] (first compound 0.2 µM); 0.344 in test [1] (first compound 0.6325 µM); 0.332 in test [1] (first compound 2 µM); 0.876 in test [2] (0.02 µM). Moreover, the relative viability turned out to be 0.884 in test [2] (0.06325 µM); 0.771 in test [2] (0.2 µM); 0.968 in test [2] (0.6325 µM); 1.17 in test [2] (2 µM); 0.931 with Trametinib (0.0025 µM); 1.03 with Trametinib (0.007906 µM). Moreover, the relative viability with Trametinib (0.02 µM, anchor plate) amounted to 0.722; in the test with Trametinib (0.025 µM) it was 0.658; in the test with Trametinib (0.07906 µM), 0.92; with Trametinib (0.25 µM), 0.985.

Values taken from the supplement of paper PMC10307832.
